Source: ChEMBL document CHEMBL4507294, “Data for DCP probe MSD-CYP11B2” (2021)

How the values were obtained:
[1] = target: Mitotic checkpoint serine/threonine-protein kinase BUB1 (Homo sapiens) (UniProt O43683); settings: Compound concentration 1000.0 nM
[2] = target: Cyclin-dependent kinase 14 (Homo sapiens) (UniProt O94921); settings: Compound concentration 1000.0 nM
[3] = target: MAP kinase-interacting serine/threonine-protein kinase 1 (Homo sapiens) (UniProt Q9BUB5); settings: Compound concentration 1000.0 nM
[4] = target: Serine/threonine-protein kinase Nek4 (Homo sapiens) (UniProt P51957); settings: Compound concentration 1000.0 nM
[5] = target: 5-hydroxytryptamine receptor 5A (Homo sapiens) (UniProt P47898); settings: Compound concentration 10.0 uM
[6] = target: Ribosomal protein S6 kinase alpha-1 (Homo sapiens) (UniProt Q15418); settings: Compound concentration 1000.0 nM
[7] = target: Ribosomal protein S6 kinase alpha-2 (Homo sapiens) (UniProt Q15349); settings: Compound concentration 1000.0 nM
[8] = target: Serine/threonine-protein kinase PAK 6 (Homo sapiens) (UniProt Q9NQU5); settings: Compound concentration 1000.0 nM
[9] = target: Calcium/calmodulin-dependent protein kinase type 1D (Homo sapiens) (UniProt Q8IU85); settings: Compound concentration 1000.0 nM
[10] = target: Myosin-IIIb (Homo sapiens) (UniProt Q8WXR4); settings: Compound concentration 1000.0 nM
[11] = test system: eIF-2-alpha kinase GCN2 (Homo sapiens), Q9P2K8 [S808G]; settings: Compound concentration 1000.0 nM
[12] = target: MAP kinase-activated protein kinase 5 (Homo sapiens) (UniProt Q8IW41); settings: Compound concentration 1000.0 nM
[13] = target: Casein kinase I isoform alpha (Homo sapiens) (UniProt P48729); settings: Compound concentration 1000.0 nM
[14] = target: Tyrosine-protein kinase Fer (Homo sapiens) (UniProt P16591); settings: Compound concentration 1000.0 nM
[15] = target: Phosphatidylinositol 4-kinase beta (Homo sapiens) (UniProt Q9UBF8); settings: Compound concentration 1000.0 nM
[16] = target: Dual serine/threonine and tyrosine protein kinase (Homo sapiens) (UniProt Q6XUX3); settings: Compound concentration 1000.0 nM
[17] = target: Interleukin-1 receptor-associated kinase 4 (Homo sapiens) (UniProt Q9NWZ3); settings: Compound concentration 1000.0 nM
[18] = target: Bone morphogenetic protein receptor type-1A (Homo sapiens) (UniProt P36894); settings: Compound concentration 1000.0 nM
[19] = test system: Receptor-type tyrosine-protein kinase FLT3 (Homo sapiens), P36888 [UNDEFINED MUTATION]; settings: Compound concentration 1000.0 nM
[20] = test system: Epidermal growth factor receptor (Homo sapiens), P00533 [UNDEFINED MUTATION]; settings: Compound concentration 1000.0 nM
[21] = target: T1, 5-hydroxytryptamine receptor 3A (Homo sapiens) (UniProt P46098); settings: Compound concentration 10.0 uM
T1 sequence (whole entry): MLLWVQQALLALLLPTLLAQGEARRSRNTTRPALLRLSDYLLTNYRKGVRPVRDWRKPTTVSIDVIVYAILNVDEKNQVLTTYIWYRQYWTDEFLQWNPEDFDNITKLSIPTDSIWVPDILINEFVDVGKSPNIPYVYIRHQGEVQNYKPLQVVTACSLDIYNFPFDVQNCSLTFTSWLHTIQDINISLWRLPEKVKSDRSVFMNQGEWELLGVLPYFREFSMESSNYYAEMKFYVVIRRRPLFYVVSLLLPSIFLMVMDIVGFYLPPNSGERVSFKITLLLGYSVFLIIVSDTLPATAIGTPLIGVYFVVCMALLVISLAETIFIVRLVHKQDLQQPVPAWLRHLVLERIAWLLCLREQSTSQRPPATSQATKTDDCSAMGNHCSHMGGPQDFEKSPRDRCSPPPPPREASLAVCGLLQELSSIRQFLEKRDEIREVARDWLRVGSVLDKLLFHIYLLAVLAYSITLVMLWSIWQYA

[22] = target: Cyclin-dependent kinase 9 (Homo sapiens) (UniProt P50750); settings: Compound concentration 1000.0 nM
[23] = target: Cyclin-dependent kinase 11B (Homo sapiens) (UniProt P21127); settings: Compound concentration 1000.0 nM
[24] = target: Mitogen-activated protein kinase kinase kinase 12 (Homo sapiens) (UniProt Q12852); settings: Compound concentration 1000.0 nM
[25] = target: Phosphatidylinositol 4-phosphate 5-kinase type-1 alpha (Homo sapiens) (UniProt Q99755); settings: Compound concentration 1000.0 nM
[26] = target: Alpha-2A adrenergic receptor (Homo sapiens) (UniProt P08913); settings: Compound concentration 10.0 uM
[27] = target: Alpha-1B adrenergic receptor (Homo sapiens) (UniProt P35368); settings: Compound concentration 10.0 uM
[28] = target: Serine/threonine-protein kinase PAK 2 (Homo sapiens) (UniProt Q13177); settings: Compound concentration 1000.0 nM
[29] = target: Serine/threonine-protein kinase BRSK1 (Homo sapiens) (UniProt Q8TDC3); settings: Compound concentration 1000.0 nM
[30] = target: Atypical kinase COQ8B, mitochondrial (Homo sapiens) (UniProt Q96D53); settings: Compound concentration 1000.0 nM
[31] = target: Phosphorylase b kinase regulatory subunit alpha, liver isoform (Homo sapiens) (UniProt P46019); settings: Compound concentration 1000.0 nM
[32] = target: Serine/threonine-protein kinase 4 (Homo sapiens) (UniProt Q13043); settings: Compound concentration 1000.0 nM
[33] = test system: Hepatocyte growth factor receptor (Homo sapiens), P08581 [M1250T]; settings: Compound concentration 1000.0 nM
[34] = target: Tyrosine-protein kinase FRK (Homo sapiens) (UniProt P42685); settings: Compound concentration 1000.0 nM
[35] = target: Serine/threonine-protein kinase MRCK beta (Homo sapiens) (UniProt Q9Y5S2); settings: Compound concentration 1000.0 nM
[36] = target: Cyclin-dependent kinase 11A (Homo sapiens) (UniProt Q9UQ88); settings: Compound concentration 1000.0 nM
[37] = target: Dual specificity mitogen-activated protein kinase kinase 7 (Homo sapiens) (UniProt O14733); settings: Compound concentration 1000.0 nM
[38] = target: 5-hydroxytryptamine receptor 1B (Homo sapiens) (UniProt P28222); settings: Compound concentration 10.0 uM

Chain of Tyrosine-protein kinase FRK (Homo sapiens) (P42685 whole entry): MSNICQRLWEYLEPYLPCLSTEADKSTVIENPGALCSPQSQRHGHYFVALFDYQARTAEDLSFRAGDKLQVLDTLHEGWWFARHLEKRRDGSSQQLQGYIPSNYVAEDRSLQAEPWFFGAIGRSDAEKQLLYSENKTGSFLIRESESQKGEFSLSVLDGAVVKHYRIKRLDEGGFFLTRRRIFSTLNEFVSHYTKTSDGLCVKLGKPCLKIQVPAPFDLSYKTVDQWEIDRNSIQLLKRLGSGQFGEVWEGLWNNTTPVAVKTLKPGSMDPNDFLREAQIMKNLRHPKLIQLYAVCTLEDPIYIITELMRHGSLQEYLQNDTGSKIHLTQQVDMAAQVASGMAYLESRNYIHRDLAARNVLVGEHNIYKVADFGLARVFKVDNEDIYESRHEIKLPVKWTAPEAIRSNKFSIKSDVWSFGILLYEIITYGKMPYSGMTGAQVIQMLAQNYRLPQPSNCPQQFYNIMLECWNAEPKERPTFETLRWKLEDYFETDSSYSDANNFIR
Chain of Calcium/calmodulin-dependent protein kinase type 1D (Homo sapiens) (Q8IU85 whole entry, looked up): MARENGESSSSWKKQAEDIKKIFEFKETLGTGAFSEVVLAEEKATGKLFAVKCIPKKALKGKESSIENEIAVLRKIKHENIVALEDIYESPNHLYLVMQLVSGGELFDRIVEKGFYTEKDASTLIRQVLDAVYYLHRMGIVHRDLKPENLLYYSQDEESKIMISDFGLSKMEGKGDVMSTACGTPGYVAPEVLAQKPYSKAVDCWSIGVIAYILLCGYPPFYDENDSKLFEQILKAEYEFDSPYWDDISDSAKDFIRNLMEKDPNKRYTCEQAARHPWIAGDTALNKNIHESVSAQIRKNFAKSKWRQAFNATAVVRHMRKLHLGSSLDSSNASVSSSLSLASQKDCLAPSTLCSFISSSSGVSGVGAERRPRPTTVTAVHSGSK
Chain of Cyclin-dependent kinase 14 (Homo sapiens) (O94921 whole entry): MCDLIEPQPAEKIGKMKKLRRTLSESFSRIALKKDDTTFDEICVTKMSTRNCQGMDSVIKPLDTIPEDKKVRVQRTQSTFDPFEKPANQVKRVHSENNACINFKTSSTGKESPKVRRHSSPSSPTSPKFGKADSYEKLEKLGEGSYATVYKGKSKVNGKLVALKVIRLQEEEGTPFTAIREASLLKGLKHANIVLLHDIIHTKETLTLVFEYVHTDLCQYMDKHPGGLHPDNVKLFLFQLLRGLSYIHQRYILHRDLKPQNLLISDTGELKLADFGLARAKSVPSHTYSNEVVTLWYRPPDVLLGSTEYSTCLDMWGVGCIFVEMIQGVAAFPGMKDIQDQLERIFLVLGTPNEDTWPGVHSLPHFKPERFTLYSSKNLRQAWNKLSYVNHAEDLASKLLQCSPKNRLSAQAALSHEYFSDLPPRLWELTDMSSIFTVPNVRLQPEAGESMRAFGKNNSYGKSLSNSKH
Chain of Ribosomal protein S6 kinase alpha-2 (Homo sapiens) (Q15349 whole entry): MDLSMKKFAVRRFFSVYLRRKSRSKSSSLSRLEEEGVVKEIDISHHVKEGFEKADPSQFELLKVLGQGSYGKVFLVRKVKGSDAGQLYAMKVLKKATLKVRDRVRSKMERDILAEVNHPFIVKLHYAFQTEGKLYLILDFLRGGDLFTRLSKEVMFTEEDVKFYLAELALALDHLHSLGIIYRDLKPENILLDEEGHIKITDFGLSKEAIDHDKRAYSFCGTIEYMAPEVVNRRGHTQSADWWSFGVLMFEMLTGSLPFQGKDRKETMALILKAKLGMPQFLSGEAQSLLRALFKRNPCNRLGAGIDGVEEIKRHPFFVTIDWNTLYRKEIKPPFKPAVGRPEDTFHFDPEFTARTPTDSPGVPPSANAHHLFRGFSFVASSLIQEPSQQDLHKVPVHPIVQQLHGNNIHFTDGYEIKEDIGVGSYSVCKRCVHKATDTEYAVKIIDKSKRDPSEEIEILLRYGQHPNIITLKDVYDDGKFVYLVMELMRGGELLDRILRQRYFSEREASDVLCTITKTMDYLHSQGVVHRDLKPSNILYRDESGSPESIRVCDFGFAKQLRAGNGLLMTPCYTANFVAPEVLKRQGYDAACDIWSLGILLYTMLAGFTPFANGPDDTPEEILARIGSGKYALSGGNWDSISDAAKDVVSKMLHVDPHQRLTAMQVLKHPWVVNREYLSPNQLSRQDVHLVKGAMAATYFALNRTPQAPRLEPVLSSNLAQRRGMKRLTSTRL
Chain of Cyclin-dependent kinase 11B (Homo sapiens) (P21127 whole entry): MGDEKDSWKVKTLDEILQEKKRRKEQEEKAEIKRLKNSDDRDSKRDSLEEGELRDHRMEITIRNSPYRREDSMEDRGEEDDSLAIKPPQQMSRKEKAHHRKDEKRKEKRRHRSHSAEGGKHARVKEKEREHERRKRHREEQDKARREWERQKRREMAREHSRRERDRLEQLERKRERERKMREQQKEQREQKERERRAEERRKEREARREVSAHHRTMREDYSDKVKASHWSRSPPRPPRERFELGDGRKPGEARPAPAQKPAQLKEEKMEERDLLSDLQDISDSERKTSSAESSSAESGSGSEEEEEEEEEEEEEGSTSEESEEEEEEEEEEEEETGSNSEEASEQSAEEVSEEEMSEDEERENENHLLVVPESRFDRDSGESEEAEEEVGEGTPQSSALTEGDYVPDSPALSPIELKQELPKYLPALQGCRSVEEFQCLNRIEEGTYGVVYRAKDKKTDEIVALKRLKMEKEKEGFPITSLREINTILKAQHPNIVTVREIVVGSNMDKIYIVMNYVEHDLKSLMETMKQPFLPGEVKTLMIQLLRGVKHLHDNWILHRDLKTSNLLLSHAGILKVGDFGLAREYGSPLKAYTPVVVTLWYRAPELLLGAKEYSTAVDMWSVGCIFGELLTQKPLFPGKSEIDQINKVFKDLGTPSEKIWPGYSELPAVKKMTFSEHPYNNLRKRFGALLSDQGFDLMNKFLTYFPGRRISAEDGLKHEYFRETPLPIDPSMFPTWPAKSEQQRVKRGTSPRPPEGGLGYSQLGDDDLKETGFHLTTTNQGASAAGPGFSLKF
Chain of Mitogen-activated protein kinase kinase kinase 12 (Homo sapiens) (Q12852 whole entry): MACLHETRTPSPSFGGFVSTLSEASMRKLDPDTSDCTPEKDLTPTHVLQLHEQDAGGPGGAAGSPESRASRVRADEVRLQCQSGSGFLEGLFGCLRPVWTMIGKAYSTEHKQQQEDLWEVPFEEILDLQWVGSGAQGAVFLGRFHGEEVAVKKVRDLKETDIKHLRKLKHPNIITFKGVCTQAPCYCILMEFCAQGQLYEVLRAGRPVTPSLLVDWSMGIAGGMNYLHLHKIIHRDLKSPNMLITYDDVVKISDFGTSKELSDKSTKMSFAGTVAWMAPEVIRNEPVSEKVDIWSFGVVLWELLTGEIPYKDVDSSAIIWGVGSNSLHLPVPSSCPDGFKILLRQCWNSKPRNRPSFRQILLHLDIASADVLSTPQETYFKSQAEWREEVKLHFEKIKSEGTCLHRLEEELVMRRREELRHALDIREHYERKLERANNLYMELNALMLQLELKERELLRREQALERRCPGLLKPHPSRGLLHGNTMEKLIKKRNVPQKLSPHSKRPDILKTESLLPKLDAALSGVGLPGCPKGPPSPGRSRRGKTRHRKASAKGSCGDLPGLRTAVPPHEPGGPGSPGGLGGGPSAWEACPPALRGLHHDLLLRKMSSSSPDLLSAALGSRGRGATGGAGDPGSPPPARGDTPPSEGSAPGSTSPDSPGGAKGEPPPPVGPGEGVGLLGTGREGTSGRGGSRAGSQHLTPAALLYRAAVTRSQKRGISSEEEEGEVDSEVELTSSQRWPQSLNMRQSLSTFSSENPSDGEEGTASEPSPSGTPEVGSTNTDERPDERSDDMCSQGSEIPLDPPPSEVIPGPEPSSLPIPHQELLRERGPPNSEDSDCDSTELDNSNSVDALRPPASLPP
Chain of Serine/threonine-protein kinase PAK 6 (Homo sapiens) (Q9NQU5 whole entry, looked up): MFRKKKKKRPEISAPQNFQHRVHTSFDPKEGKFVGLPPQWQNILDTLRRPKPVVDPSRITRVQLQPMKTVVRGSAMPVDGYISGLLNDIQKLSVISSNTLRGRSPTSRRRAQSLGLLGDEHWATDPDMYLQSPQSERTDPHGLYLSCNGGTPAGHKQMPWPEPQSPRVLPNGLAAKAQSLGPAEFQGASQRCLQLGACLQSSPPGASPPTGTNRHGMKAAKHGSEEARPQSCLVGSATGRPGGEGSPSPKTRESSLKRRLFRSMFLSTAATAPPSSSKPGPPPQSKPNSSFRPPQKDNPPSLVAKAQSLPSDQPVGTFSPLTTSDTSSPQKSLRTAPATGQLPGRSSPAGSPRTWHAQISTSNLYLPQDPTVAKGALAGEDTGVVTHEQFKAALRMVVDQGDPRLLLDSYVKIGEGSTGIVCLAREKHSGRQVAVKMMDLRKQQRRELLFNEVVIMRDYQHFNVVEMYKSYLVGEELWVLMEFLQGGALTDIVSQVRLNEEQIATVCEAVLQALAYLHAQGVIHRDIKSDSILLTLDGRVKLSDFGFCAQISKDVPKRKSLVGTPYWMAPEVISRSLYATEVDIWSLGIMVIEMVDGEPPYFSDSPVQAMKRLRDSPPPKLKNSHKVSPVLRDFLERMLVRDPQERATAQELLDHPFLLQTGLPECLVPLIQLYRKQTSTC
Chain of Atypical kinase COQ8B, mitochondrial (Homo sapiens) (Q96D53 whole entry, canonical isoform): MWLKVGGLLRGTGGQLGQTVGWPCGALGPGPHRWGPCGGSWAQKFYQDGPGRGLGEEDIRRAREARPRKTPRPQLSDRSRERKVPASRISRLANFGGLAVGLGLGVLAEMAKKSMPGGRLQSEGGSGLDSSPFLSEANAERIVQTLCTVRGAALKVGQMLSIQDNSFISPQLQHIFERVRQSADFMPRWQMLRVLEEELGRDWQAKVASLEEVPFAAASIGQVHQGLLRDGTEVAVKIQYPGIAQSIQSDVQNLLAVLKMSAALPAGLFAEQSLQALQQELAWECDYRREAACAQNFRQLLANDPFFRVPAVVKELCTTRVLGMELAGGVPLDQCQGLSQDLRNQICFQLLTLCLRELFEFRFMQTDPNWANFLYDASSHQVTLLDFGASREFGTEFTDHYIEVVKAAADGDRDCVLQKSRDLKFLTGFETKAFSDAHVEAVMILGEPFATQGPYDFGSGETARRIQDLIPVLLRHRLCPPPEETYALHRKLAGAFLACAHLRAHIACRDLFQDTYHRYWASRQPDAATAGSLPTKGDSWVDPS

Compound	residual activity [1] [%]	residual activity [2] [%]	residual activity [3] [%]	residual activity [4] [%]	inhibition [5] [%]	residual activity [6] [%]	residual activity [7] [%]	residual activity [8] [%]	residual activity [9] [%]	residual activity [10] [%]	residual activity [11] [%]	residual activity [12] [%]	residual activity [13] [%]	residual activity [14] [%]	residual activity [15] [%]	residual activity [16] [%]	residual activity [17] [%]	residual activity [18] [%]	residual activity [19] [%]	residual activity [20] [%]	other results
FC(F)(F)c1ccc2c(c1)nc(-c1cccnc1)n2C1CC1 [MSD-CYP11B2-Negative-control]	89	100	100	100	-2.64	100	100	100	100	67	93	97	90	100	94	100	100	93	100	100	inhibition [21]: -8.72%; residual activity [22]: 100%; residual activity [23]: 100%; residual activity [24]: 100%; residual activity [25]: 71%; inhibition [26]: 6.92%; inhibition [27]: 11.7%; residual activity [28]: 100%; residual activity [29]: 100%; residual activity [30]: 100%; residual activity [31]: 100%; residual activity [32]: 100%; residual activity [33]: 100%; residual activity [34]: 100%; residual activity [35]: 100%; residual activity [36]: 100%; residual activity [37]: 100%; inhibition [38]: 8.83%
CC(C)(O)c1cncc(-c2nc3ccc(F)cc3n2C2CC2)c1 [MSD-CYP11B2]	99	100	100	100	-9.57	100	100	100	100	71	100	100	84	100	100	100	100	88	100	100	inhibition [21]: -6.88%; residual activity [22]: 100%; residual activity [23]: 100%; residual activity [24]: 100%; residual activity [25]: 76%; inhibition [26]: 74.6%; inhibition [27]: 23.8%; residual activity [28]: 100%; residual activity [29]: 100%; residual activity [30]: 100%; residual activity [31]: 100%; residual activity [32]: 100%; residual activity [33]: 100%; residual activity [34]: 100%; residual activity [35]: 100%; residual activity [36]: 100%; residual activity [37]: 100%; inhibition [38]: 16.8%
